Laboratory results published in patent publication US20170298360A1, “LATS AND BREAST CANCER” (FRIEDRICH MIESCHER INSTITUTE FOR BIOMEDICAL RESEARCH, priority 2014, published 2017).
Peptide text beside a SMILES is read from it. * marks the point of attachment. Cbz = O=C(OCc1ccccc1)*

Assays:
[1] = system: ERα; experiment: LATS1-induced ERα degradation in LATS1 overexpressing cells (immunoblot); format: cell-based, human
Protocol: Cell lines and in vitro experiments SUM159PT human breast cancer cells were from Asterand and propagated as recommended. All the other cell lines were from, and were cultured according to the protocol of ATCC. MCF10A cells were maintained as previously described (Bentires-Alj et al., 2006). For most experiments, MCF10A, SUM159 and MDA 436 cells were cultured in M5 medium and the medium was refreshed or replaced every 3 days. Antibody blocking experiments were performed by adding anti-AREG (R&D, MAB262, 0.5-10 μg/ml) or a mouse IgG antibody (R&D, 10 or 2.5 μg/ml) to the medium prior to seeding of the cells or transferring the conditioned medium. Cell viability was measured using the Cell Proliferation Reagent WST-1 (Roche). Colony formation assays were performed by seeding 500-1000 cells/well in 6-well plates. Cells were allowed to adhere overnight before treatment with inhibitors or solvent as indicated. Colonies were stained after 6-10 days with 0.2% crystal violet in PBS/4% formalin. Colony area was quantified using the Odyssey scanner and software (LICOR) or Image-J (Fiji 64 bit). For sphere formation assays, 4000 (passage 1) or 1000 (subsequent passages) MCF10A cells/ml were grown in ultra-low attachment (ULA) dishes (Corning) for 5-7 days. […]

[2] = system: T47D and MCF7 cells; experiment: Cell viability (WST-1) of ER-positive breast cancer cells after downregulation of LATS; format: cell-based, human; settings: LATS downregulated vs control
From the text: (§1) Lentiviral vectors, lentivirus production and infection For LATS knockdown, the following TRC pLKO clones (Sigma) were used: LATS_1=NM_004690.x-2666s1c1, LATS_2=NM_004690.x-3614s1c1, LATS_3=NM_014572.x-2894s1c1 and the MISSION® Non-Target shRNA Control Vector SHC002. For the competition experiment, GFP and ERα expressing lentiviral vectors were cloned as described in (Duss, BCR, 2007). Lentiviruses were produced by PEI transfection of 293 T cells as described (Britschgi et al., 2012; Duss et al., 2014). The titer of each lentiviral batch was determined on PHBECs or MCF10A cells. Cell lines were infected o/n in the presence of hexamethrine bromide (8 μg/mL). Infections were performed at a multiplicity of infection of 5-20 viral particles per cell. Selection with 1.25-1.5 μg/ml puromycin was applied 48 h after infection.
(§2) Cell lines and in vitro experiments SUM159PT human breast cancer cells were from Asterand and propagated as recommended. All the other cell lines were from, and were cultured according to the protocol of ATCC. MCF10A cells were maintained as previously described (Bentires-Alj et al., 2006). […] Cell viability was measured using the Cell Proliferation Reagent WST-1 (Roche). […] Colony area was quantified using the Odyssey scanner and software (LICOR) or Image-J (Fiji 64 bit). […]

[3] = molecular target: T1, ERα (Homo sapiens, UniProt P03372); experiment: ERα degradation in luminal breast cancer cells lacking LATS; format: cell-based; settings: cancer cells lacking LATS grown as xenograft
T1 sequence (P03372 1-595): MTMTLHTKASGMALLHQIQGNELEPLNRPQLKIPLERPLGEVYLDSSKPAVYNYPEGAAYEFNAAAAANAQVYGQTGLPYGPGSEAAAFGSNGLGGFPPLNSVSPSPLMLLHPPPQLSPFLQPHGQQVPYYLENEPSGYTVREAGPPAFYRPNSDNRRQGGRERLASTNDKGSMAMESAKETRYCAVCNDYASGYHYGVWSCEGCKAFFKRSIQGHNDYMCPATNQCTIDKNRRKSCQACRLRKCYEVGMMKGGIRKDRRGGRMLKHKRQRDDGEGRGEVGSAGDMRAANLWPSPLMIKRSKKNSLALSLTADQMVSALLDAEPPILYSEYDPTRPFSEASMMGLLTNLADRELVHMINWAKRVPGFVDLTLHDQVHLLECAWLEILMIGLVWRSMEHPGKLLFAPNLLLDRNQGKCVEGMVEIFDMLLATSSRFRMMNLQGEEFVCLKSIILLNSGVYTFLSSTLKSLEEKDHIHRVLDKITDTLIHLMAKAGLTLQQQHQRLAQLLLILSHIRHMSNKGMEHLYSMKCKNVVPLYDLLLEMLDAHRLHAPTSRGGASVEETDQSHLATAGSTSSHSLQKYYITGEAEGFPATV
Protocol: Immunoblotting and immunoprecipitation Cells for immunoblotting and ELISA were lysed with RIPA buffer (50 mM Tris-HCl pH 8, 150 mM NACl, 1% NP-40, 0.5% sodium deoxycholate, 0.1% SDS), supplemented with 1× protease inhibitor cocktail (Complete Mini, Roche), 0.2 mMol/L sodium orthovanadate, 20 mM sodium fluoride and 1 mM phenylmethylsulfonyl fluoride. […]

[4] = system: T47D; experiment: Orthotopic xenograft tumor growth of ER-positive breast cancer cells lacking LATS; format: in vivo, mouse; settings: cancer cells lacking LATS grown as xenograft, intraperitoneal
Protocol: Animal experiments SCID/beige and SCID/NOD (Jackson Labs) were used in compliance with the Swiss laws for animal welfare and animal protocols were approved by the Swiss Cantonal Veterinary Office of Basel. For orthotopic engraftment of breast cancer cell lines, 2×10^6 T47D or 1×10^6 SUM159 cells were suspended in a 100 μl mixture of Basement Membrane Matrix Phenol Red-free (BD Biosciences) and PBS 1:1 and injected into the mouse mammary gland 4. For the estrogen-dependent T47D cell line, mice received estrogen-containing drinking water 2 days prior to injection. Tumor-bearing mice were randomized based on tumor volume prior to the initiation of treatment, which started when average tumor volume was at least 100 mm^3. Fulvestrant and Tamoxifen hydrate dissolved in sunflower seed oil (all from Sigma) were injected intraperitoneally as indicated. Tumors were measured every 3 to 4 days with vernier calipers, and tumor volumes were calculated by the formula 0.5×(larger diameter)×(smaller diameter)^2.
Compounds and formulations Fulvestrant, 4-Hydroxytamoxifen (4-OHT), Tamoxifen (OHT), Cycloheximide and MG132 were from Sigma. Fulvestrant and MG-132 were prepared as 10 mMol/L stock solution in DMSO, 4-OHT and Cycloheximide as 10 mMol/L in ethanol and all stock solutions were stored at −20° C. […]

[5] = system: SUM159 and MDA 436; experiment: Colony formation of triple-negative breast cancer lines with or without LATS; format: cell-based, human; settings: SUM159 and MDA 436 in M5 medium
From the text: as §1, §2

[6] = system: SUM159 shLATS xenografts; experiment: Orthotopic SUM159 shNT / shLATS xenograft tumor growth; format: in vivo, mouse; settings: tumor-bearing mice, tamoxifen citrate 3 mg/kg, intraperitoneal, n=5, **P<0.01 vs shNT
Protocol: Animal experiments SCID/beige and SCID/NOD (Jackson Labs) were used in compliance with the Swiss laws for animal welfare and animal protocols were approved by the Swiss Cantonal Veterinary Office of Basel. For orthotopic engraftment of breast cancer cell lines, 2×10^6 T47D or 1×10^6 SUM159 cells were suspended in a 100 μl mixture of Basement Membrane Matrix Phenol Red-free (BD Biosciences) and PBS 1:1 and injected into the mouse mammary gland 4. […] Tumor-bearing mice were randomized based on tumor volume prior to the initiation of treatment, which started when average tumor volume was at least 100 mm^3. Fulvestrant and Tamoxifen hydrate dissolved in sunflower seed oil (all from Sigma) were injected intraperitoneally as indicated. Tumors were measured every 3 to 4 days with vernier calipers, and tumor volumes were calculated by the formula 0.5×(larger diameter)×(smaller diameter)^2.
For in vivo studies, fulvestrant and tamoxifen were dissolved in sunflower seed oil (Sigma) and injected intraperitoneal as indicated.

SMILES	LATS1-induced degradation of ERα [1]	effect of LATS downregulation on sensitivity / viability of treated cells [2]	degradation of ERα [3]	reduction of tumor growth [4]	colony formation in cells lacking LATS compared to controls [5]	tumor growth of SUM159 shLATS xenografts [6]	tumor growth of SUM159 shLATS xenografts ([6]; listed as tamoxifen citrate)
CC(C)C[C@@H](C=O)NC(=O)[C@H](CC(C)C)NC(=O)[C@H](CC(C)C)NC(=O)OCc1ccccc1 [MG132] (Cbz-Leu-Leu-Leu-aldehyde)	prevented						
C[C@]12CC[C@@H]3c4ccc(O)cc4C[C@@H](CCCCCCCCC[S+]([O-])CCCC(F)(F)C(F)(F)F)[C@H]3[C@@H]1CC[C@@H]2O (stereo partly drawn) [fulvestrant, Fulvestrant]		reduced sensitivity	failed to degrade ERα	failed	no effect		
CC/C(=C(\c1ccccc1)c1ccc(OCCN(C)C)cc1)c1ccccc1 [tamoxifen, Tamoxifen]		no effect			reduced colony formation	stopped growing	susceptible
